Test [1] in a line: Inhibition of Wistar rat intestinal maltase assessed as inhibition of D-glucose release after 30 mins by spectrophotometry.
The target of test [2] is T1, Sucrase-isomaltase, intestinal (Rattus norvegicus, UniProt P23739). Description: Inhibition of Wistar rat intestinal sucrase assessed as inhibition of D-glucose release after 30 mins by spectrophotometry.
Test [3] addresses T1, Sucrase-isomaltase, intestinal. Kind of test: Inhibition of Wistar rat intestinal isomaltase assessed as inhibition of D-glucose release after 30 mins by spectrophotometry.

SMILES strings stand for the structures.

T1 sequence (P23739 1-1013 limits assumed): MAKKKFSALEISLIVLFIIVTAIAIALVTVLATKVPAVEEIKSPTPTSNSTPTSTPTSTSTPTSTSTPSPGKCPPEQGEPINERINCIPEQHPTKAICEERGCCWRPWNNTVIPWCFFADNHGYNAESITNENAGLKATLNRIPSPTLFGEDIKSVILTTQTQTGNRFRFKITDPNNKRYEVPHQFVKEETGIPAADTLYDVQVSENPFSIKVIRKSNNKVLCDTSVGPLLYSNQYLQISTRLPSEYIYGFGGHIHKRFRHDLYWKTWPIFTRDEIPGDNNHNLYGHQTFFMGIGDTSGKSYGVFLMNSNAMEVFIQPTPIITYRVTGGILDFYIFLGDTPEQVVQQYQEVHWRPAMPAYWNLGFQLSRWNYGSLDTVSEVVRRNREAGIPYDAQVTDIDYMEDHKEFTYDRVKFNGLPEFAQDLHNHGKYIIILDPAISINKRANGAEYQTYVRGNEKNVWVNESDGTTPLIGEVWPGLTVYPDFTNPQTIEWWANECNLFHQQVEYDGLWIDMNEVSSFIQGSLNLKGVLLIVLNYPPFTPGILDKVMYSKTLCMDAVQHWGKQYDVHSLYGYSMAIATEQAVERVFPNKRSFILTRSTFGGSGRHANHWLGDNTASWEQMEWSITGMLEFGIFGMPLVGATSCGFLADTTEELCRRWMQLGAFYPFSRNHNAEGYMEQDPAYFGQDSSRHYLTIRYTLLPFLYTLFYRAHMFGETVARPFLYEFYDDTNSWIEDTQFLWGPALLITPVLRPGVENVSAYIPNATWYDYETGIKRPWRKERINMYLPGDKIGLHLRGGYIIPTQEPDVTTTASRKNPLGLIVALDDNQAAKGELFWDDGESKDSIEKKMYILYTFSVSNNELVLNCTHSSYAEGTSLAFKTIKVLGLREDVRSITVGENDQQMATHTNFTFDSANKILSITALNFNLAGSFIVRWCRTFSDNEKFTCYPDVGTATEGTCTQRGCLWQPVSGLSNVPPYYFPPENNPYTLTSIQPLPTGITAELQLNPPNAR
T1 sequence (P23739 1014-1841 limits assumed): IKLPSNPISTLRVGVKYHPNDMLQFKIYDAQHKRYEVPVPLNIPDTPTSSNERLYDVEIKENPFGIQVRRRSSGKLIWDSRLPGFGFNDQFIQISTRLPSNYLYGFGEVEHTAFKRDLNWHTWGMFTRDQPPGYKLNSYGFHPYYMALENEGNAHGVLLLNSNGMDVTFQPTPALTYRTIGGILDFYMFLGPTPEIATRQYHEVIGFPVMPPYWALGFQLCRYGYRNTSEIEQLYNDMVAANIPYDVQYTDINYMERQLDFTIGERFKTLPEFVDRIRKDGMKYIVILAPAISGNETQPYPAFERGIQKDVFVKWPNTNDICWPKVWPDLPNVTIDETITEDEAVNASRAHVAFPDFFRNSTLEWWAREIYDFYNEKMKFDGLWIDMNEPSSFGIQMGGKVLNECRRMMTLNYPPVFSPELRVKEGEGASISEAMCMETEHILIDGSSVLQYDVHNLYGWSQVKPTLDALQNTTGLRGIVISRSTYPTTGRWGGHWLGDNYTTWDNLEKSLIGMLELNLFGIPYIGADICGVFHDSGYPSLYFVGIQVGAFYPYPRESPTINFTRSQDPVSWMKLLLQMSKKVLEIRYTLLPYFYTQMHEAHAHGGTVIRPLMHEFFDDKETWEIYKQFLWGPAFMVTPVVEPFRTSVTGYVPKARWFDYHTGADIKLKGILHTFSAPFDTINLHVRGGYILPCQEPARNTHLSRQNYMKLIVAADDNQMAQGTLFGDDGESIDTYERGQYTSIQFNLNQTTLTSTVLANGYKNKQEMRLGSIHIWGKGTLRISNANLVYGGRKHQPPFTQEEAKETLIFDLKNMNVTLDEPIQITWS

Usually IC50 stands for the midpoint of a concentration-inhibition curve. On to `OC[C@@H]1N[C@@H](CCCCc2ccccc2)[C@H](O)[C@H]1O`, for which the half-maximal inhibitory concentration (IC50) in test [1] was 220 nM.
For `OC[C@@H]1N[C@@H](CCCCc2ccc(O)cc2)[C@H](O)[C@H]1O`, the concentration for half-maximal inhibition (IC50) in test [2] stood at 110 nM; in test [3], 6000 nM.
The corresponding values for `OC[C@@H]1N[C@@H](CCCCc2ccc(F)cc2)[C@H](O)[C@H]1O` are 170 nM and 3000 nM.
The corresponding values for `OC[C@@H]1N[C@@H](CCCCc2cc(F)cc(F)c2)[C@H](O)[C@H]1O` are 26 nM and 220 nM.
Consider `COc1ccc(CCCC[C@@H]2N[C@@H](CO)[C@H](O)[C@H]2O)cc1`, for which the 50% inhibitory concentration (IC50) in test [2] was found to be 130 nM; in test [3], 1800 nM.
The matching figures for `Cc1ccc(CCCC[C@@H]2N[C@@H](CO)[C@H](O)[C@H]2O)cc1`: 45 nM and 630 nM.
